{"source": "patent US20230302022A1", "about": "“PREVENTING OR MITIGATING CHEMOTHERAPY INDUCED ALOPECIA USING VITAMIN D” (priority 2016, published 2023)", "key": {"SKMEL-28 (melanoma)": {"test_system": "SKMEL-28 (melanoma)", "experiment": "Cell growth / viability assay, SKMEL-28", "assay_type": "cell-based", "experimental": "The drug treatment period was usually three days. At the end of the three days, the background OD of the 96-well plate was read at 280 nm, before 20 μL of the “Substrate Cell Titer 96 Aqueous One Solution Reagent” (Promega) was added to each well. […] The net OD increase was calculated by subtracting the pre-substrate OD reading. The impact of the drug on the cells was calculated by comparing the OD at different concentrations in relation to the OD of the control wells (without the drug). The results of the Net OD as a function of drug concentration was plotted and used to determine ED50 values."}, "HEKa cells [1]": {"test_system": "HEKa cells", "experiment": "2-D gel electrophoresis proteomic analysis of calcitriol-treated HEKa cells", "assay_type": "cell-based, human", "settings": "0.1 μg/mL calcitriol, 3, 6, 24 hours vs control", "experimental": "The cell pellets were then analyzed using proteomic methods, such as 2-D gel and Western blot analysis. […] In all, analysis of about 458 protein spots in the comparative study was performed, comparing the control sample against the 3-, 6-, and 24-hour treatment samples. Six spots showing statistically significant differential changes were identified. These spots were excised, and their protein contents subjected to sequence identification by trypsin digestion and mass spectrometry characterization."}, "[2]": {"experiment": "Quantification of calcitriol in ex vivo porcine skin layers after 7 days of dermal administration", "settings": "for Stratum Corneum, Calcitriol Recovered: 10 μg/mL, mean ± SD", "quoted_text": "The placebo and test articles were administered dermally twice daily approximately 6 hours apart for 7 days during the study. The dose concentrations were 0, 1, 3, 10, 30, and 100 μg/mL, and administered at an application rate of 4 mg/cm^2 (equivalent to 144 mg or 166 μL of test solution). Prior to initiation of administration (Days −4 and −5 for Groups 1 and 2, respectively), the hair was clipped from the application sites using an electric clipper. Care was taken to avoid abrading the skin. The dorsal surface of each animal was divided into five application sites for Group 1 and two application sites for Group 2. Each application site was approximately 6×6 cm with at least a 2 cm space between each site. The placebo and test article formulations were uniformly applied over the specified application site with a glass stirring rod or appropriate instrument. Prior to dosing, the residual test article from the previous dose was gently removed using a soft paper towel (i.e., WyPall®) moistened with tap water.\nAt the end of the study, the skin was reflected from a ventral midline incision, and sections of treated and untreated skin were collected and preserved. Sections of each 6×6 cm dosing site were first thoroughly surface washed with a mild soap and water mixture (e.g., 1% Ivory Soap in water or equivalent) to remove any residual topical test formulation. The washed skin sections were then wiped clean with ethanol, and were excised down to and including the adipose layer. If the area to be excised is larger than the dosed area, the dosed area was demarked with indelible ink to delineate the skin area that was dosed. The 1.5 cm×1.5 cm sections were laid flat, wrapped in two layers of Saran wrap (or equivalent) and flash frozen in liquid nitrogen. The samples were stored at −70° C. and shipped on dry ice via overnight courier for analysis. Each skin section was identified as appropriate (e.g., animal identification, study number, date, etc.).\nUpon arrival at the analysis site, skin sections were placed in water tight plastic bag and thawed by emersion in warm water (˜30° C.-35° C.). Each skin section was gently rinsed with distilled de-ionized water to remove any residual test article and blood. All subcutaneous tissue (e.g., adipose) was removed by manual scalpel ablation. Within the central region of the dosed area, four individual 1 cm^2 circles (replicates) were demarked, and each site was subsequently identified and the actual area recorded. […] The skin sections were weighed and the weight recorded. […]\nFollowing tape stripping, the skin was separated into epidermis (sans stratum corneum, simply referred to herein after as “epidermis”) and dermis by heat exposure to 60° C. for approximately 1-1.5 minutes. […] The epidermis and dermis were weighed and the weight recorded. […]"}, "HEKa cells [3]": {"test_system": "HEKa cells", "experiment": "HEKa keratinocyte growth / viability assay, with and without chemotherapy drugs", "assay_type": "cell-based, human", "experimental": "All experiments were conducted in 96-well plate format. Each well contained the same amount of HEKa cells in about 100 μL of media (usually between 2,000-5,000 cell/well). Calcitriol was dissolved in ethanol to make a stock solution. The stock solution was serially diluted 1:2 in the growth media, covering a range of between 4.0 μg/mL to about 15.5 ng/mL (9 test concentrations). […] All experiments were conducted in duplicates.\nIn these experiments, a selected commercial drug was serially diluted, starting at a concentration 4-times higher than the final desired concentration for cell incubation.\nThe drug treatment period was usually three days. At the end of the three days, the background OD of the 96-well plate was read at 280 nm, before 20 μL of the “Substrate Cell Titer 96 Aqueous One Solution Reagent” (Promega) was added to each well. The plate was returned to the 37° C. incubator, and its OD at 490 nm was read each hour until an OD of approximately 1.5 was reached. The net OD increase was calculated by subtracting the pre-substrate OD reading.\nThe impact of the drug on the cells was calculated by comparing the OD at different concentrations in relation to the OD of the control wells (without the drug). The results of the Net OD as a function of drug concentration was plotted and used to determine ED50 values.\nThen these pretreated cells were utilized to set up the cell based assay.\nThree commonly used chemotherapy drugs (doxorubicin, cisplatin and erlotinib) were selected to evaluate calcitriol treated cells. […] In these experiments, the commercial drugs were serially diluted, starting at a concentration 4-times higher than the final desired concentration for cell incubation."}, "HEKa cells [4]": {"test_system": "HEKa cells", "experiment": "Antibody microarray (Panorama XP725) of calcitriol-treated HEKa cells", "assay_type": "cell-based, human", "settings": "24-hour", "experimental": "Briefly, the treated HEKa cells were first harvested and then extracted to obtain a soluble protein supernatant. Two portions of the extracted protein sample (˜1 mg total) from each sample (at 1 mg/mL) were each labeled with fluorescent dye (Cy3 and Cy5, respectively). The excess dye was removed from the protein sample, and the resulting labeled protein samples were used for microarray incubation. To determine the expression level of a particular target protein at a later time point (e.g., at hour 6 or 24) relative to that at an earlier time point (e.g., at hour 3), the samples were labeled by different labels (e.g., 3-hour extract labeled with Cy3, 6-hour or 24-hour extract labeled with Cy5). Then the two labeled samples containing equal amounts of total protein were mixed (e.g., Cy3-labeled 3-hour sample is mixed with Cy5-labeled 6-hour or 24-hour samples, respectively). After incubation with the microarray chip (according to manufactures recommended protocols), the chips were washed and dried. The microarrays were then scanned with a fluorescent laser scanner to measure the relative fluorescence intensity of the Cy3 and Cy5 dyes. If the amount of a particular type of target protein increased (or decreased) over time, more (or less) of the dye associated with the later time point (e.g., Cy5) will be retained by the microarray. […]"}, "Gottingen Minipigs": {"test_system": "Gottingen Minipigs", "experiment": "4-week dermal toxicity study in Gottingen Minipigs", "settings": "twice daily, 29 consecutive days, 2.1 mL", "experimental": "Observations for morbidity, mortality, injury, and the availability of food and water were conducted twice daily for all animals. Clinical observations were conducted weekly."}, "[5]": {"settings": "0.1 μg/mL calcitriol, low dosage levels"}}, "note": "“Also recorded” adds a separate entry of the source.", "data": [{"compound": "C=C1/C(=C\\C=C2/CCC[C@]3(C)[C@@H]([C@H](C)CCCC(C)(C)O)CC[C@@H]23)C[C@@H](O)C[C@@H]1O", "note": "[Calcitriol, (5Z,7E)-9,10-secocholesta-5,7.10(19Hriene-1 a,33.25-triol]", "values": [{"measurement": "effect of calcitriol on cell growth", "setting": "SKMEL-28 (melanoma); SKMEL-28", "result": "no significant growth promoting or growth inhibiting effects"}, {"measurement": "effect of calcitriol on the cytotoxic effect of Doxorubicin", "setting": "SKMEL-28 (melanoma); SKMEL-28", "result": "did not appear to appreciably alter"}, {"measurement": "5-FU ED50 curve with vs without calcitriol", "setting": "SKMEL-28 (melanoma); SKMEL-28, 0.1 μg/mL calcitriol", "result": "not significantly different"}, {"measurement": "Galectin 1 (LGALS1) Response", "setting": "HEKa cells [1]", "result": "up at 6 and 24"}, {"measurement": "Glutathione S-transferase (GST) Response", "setting": "HEKa cells [1]", "result": "up at 3, 6, and 24"}, {"measurement": "Keratin 17 (KR17) Response", "setting": "HEKa cells [1]", "result": "down at 24 hours"}, {"measurement": "S100 A9 (Calprotectin) Response", "setting": "HEKa cells [1]", "result": "down at 6 and 24"}, {"measurement": "S100 A13 Response", "setting": "HEKa cells [1]", "result": "up at 6 and 24"}, {"measurement": "skin layers in which calcitriol was measurable", "setting": "[2]; 1-100 μg/mL, exception: dermis at 100 μg/mL in a single male minipig", "result": "measurable in most stratum corneum and epidermal samples, but not in the dermal samples"}, {"measurement": "applied dose correlation to epidermal tissue level", "setting": "[2]; 3 to 100 μg/mL applications", "result": "near linear increase"}, {"measurement": "Stratum Corneum, Calcitriol Recovered", "setting": "[2]; Female Minipigs", "result": "1.65 ± 1.80 (3) ng/cm^2"}, {"measurement": "Stratum Corneum, Calcitriol Recovered", "setting": "[2]; Male Minipigs", "result": "59.6 ± 14.1 (3) ng/cm^2"}, {"measurement": "protective effect against 5-FU", "setting": "HEKa cells [3]; 0.1 μg/mL calcitriol", "result": "protects; also recorded: mild protective effect; also recorded: some levels of protection"}, {"measurement": "protective effect against doxorubicin", "setting": "HEKa cells [3]; 0.1 μg/mL calcitriol", "result": "did not appear to provide a significant protective effect"}, {"measurement": "protective effect against gemcitabine", "setting": "HEKa cells [3]; 0.1 μg/mL calcitriol", "result": "mild protective effect"}, {"measurement": "protective effect against irinotecan", "setting": "HEKa cells [3]; 0.1 μg/mL calcitriol", "result": "positive protective effect"}, {"measurement": "protective effect against paclitaxel (Paxlitaxol)", "setting": "HEKa cells [3]; 0.1 μg/mL calcitriol", "result": "some protective effects"}, {"measurement": "protective effect against tamoxifen", "setting": "HEKa cells [3]; 0.1 μg/mL calcitriol", "result": "weak"}, {"measurement": "HEKa growth after prolonged calcitriol exposure", "setting": "HEKa cells [3]; 0.1 μg/mL calcitriol for two cell passages", "result": "stopped growing"}, {"measurement": "protection against carboplatin", "setting": "HEKa cells [3]; [5]", "result": "moderate level of protection"}, {"measurement": "protection against cisplatin", "setting": "HEKa cells [3]; [5]", "result": "moderate level of protection"}, {"measurement": "protective effect against kinase inhibitor drugs (erlotinib, gefitinib, sorafenib, dasatinib, staurosporin)", "setting": "HEKa cells [3]; 0.1 μg/mL calcitriol, low drug dosage levels", "result": "protected the HEKa cells"}, {"measurement": "interaction (synergy) between calcitriol and commercial drugs", "setting": "HEKa cells [3]; 0.1 μg/mL calcitriol, 5-FU, doxorubicin, tamoxifen, irinotecan, paclitaxel, carboplatin, staurosporin, vincristine, cisplatin, erlotinib, gemcitabine, imatinib, gefitinib, sorafenib, dasatinib", "result": "no interaction"}, {"measurement": "chemoprotective effect: pre-treatment group vs simultaneous treatment group", "setting": "HEKa cells [3]; 0.1 μg/mL calcitriol, doxorubicin, cisplatin, erlotinib", "result": "nearly identical"}, {"measurement": "stimulation of HEKa cell growth", "setting": "HEKa cells [3]; lowest levels of calcitriol (tested range about 0.008-2.0 μg/mL)", "result": "10-20%"}, {"measurement": "calcitriol concentration at which HEKa cell growth is inhibited", "setting": "HEKa cells [3]; tested range about 0.008-2.0 μg/mL", "result": "≥ 1.0", "unit": "µg/mL"}, {"measurement": "proteins significantly upregulated (number)", "setting": "HEKa cells [4]", "result": "about fifty proteins"}, {"measurement": "no-observed-adverse-effect-level (NOAEL)", "setting": "Gottingen Minipigs", "result": 10.31, "unit": "µg/mL"}]}]}
